# Measured values from patent US11957684B2, “Treatment of heavy menstrual bleeding associated with uterine fibroids” (Sumitomo Pharma Switzerland GmbH, priority 2016, dated 2024).
# What was measured:
# [1] = test system: LH, FSH, estradiol (E2), progesterone (P), CA125; assay: Example 8A: serum LH, FSH, E2, P and CA125; assay type: in vivo, human; conditions: for median change in serum E2 from baseline / median change in serum FSH from baseline / median change in serum LH from baseline / median change in serum progesterone (P) from baseline / subjects with CA125 less than or equal to 35 U/mL: Week 24
# Text: Study participants were premenopausal (≥20 years) Japanese women with endometriosis (EM)-associated pain who completed a preceding 12-week study and were eligible to continue for an additional 12-week treatment were enrolled. The participants has confirmed normal regular menstrual cycles (25 to 38 days per cycle) and diagnosed to have EM and EM-related dysmenorrhea and pelvic pain of at least moderate severity as determined by the physician B&B scale. The primary endpoint was the safety including assessment of change in bone mineral density (BMD) using dual energy x-ray absorptiometry, adverse events, vital signs, weight, 12-lead electrocardiograms, and clinical laboratory tests. […] Baseline characteristics were similar between randomized patients and all patients who entered the extension study.
# women with endometriosis = assay: Example 7: bone mineral density and serum hormones; assay type: in vivo, human; conditions: for percent change of bone mineral density from baseline: 12 wk
# Text: Subjects were diagnosed with endometriosis within the 5 years before screening and had dysmenorrhea and pelvic pain, of which either 1 or both was at least “moderate” as determined by the investigator using the Biberoglu & Behrman (B&B) scale. […] Secondary endpoints included VAS score for pelvic pain, dysmenorrhea, and dyspareunia during the treatment period.
# endometriosis = assay: Example 7 12-week study in endometriosis: efficacy (VAS, B&B, EHP-30); assay type: in vivo, human; conditions: for Physician B&B, dysmenorrhea / Physician B&B, dyspareunia / Physician B&B, non-menstrual pelvic pain / change from baseline in EHP-30, Control and powerlessness / change from baseline in EHP-30, Self-image / change from baseline in EHP-30, emotional well-being / change from baseline in EHP-30, pain / change from baseline in EHP-30, social support: Week 12; for Modified (patient) B&B, deep dyspareunia / Modified (patient) B&B, dysmenorrhea / Modified (patient) B&B, non-menstrual pelvic pain / change from baseline in proportion of days with usage of analgesics: end of treatment
# Experimental: Secondary endpoints included VAS score for pelvic pain, dysmenorrhea, and dyspareunia during the treatment period. […] Subjects recorded in the patient diary every day until the end of treatment. […] Designated examinations and evaluations were performed at each visit. As used in the examples, the VAS score was evaluated using a 100 mm scale. For pain intensity, the scale was anchored by “no pain” (score of 0) and “pain as bad as you can imagine” (score of 100). […] The above items were evaluated using a patient diary that was distributed by the sponsor. Subjects filled out the patient diary every day during the treatment period or until early termination. If taking prohibited analgesics, subjects recorded this fact in the patient diary along with the accompanying pain symptoms before use of analgesics. As used in the examples, pain during menstruation and pelvic pain unrelated to menstruation were evaluated using scores on the M-B&B and B&B. The M-B&B scores were recorded by subjects on the patient diary supplied by the sponsor. Subjects filled out the patient diary every day during the treatment period or until early termination. If taking prohibited analgesics, subjects recorded this fact in the patient diary along with the accompanying pain symptoms before use of analgesics. The investigator or subinvestigator assessed each patient's pain through interviews and filled out a B&B once a month. The items that were assessed are shown below. The M-B&B score included: dysmenorrhea (severe, moderate, mild, no pain, or no menstruation); pelvic pain (severe, moderate, mild, or no pain); deep dyspareunia (severe, moderate, mild, no pain, or no intercourse). The B&B score included: dysmenorrhea (severe, moderate, mild, none, or not applicable); dyspareunia (severe, moderate, mild, none, or not applicable); pelvic pain (severe, moderate, mild, or none); pelvic tenderness (severe, moderate, mild, or none); and induration (severe, moderate, mild, or none). As used in the examples, the EHP-30 score was obtained by subjects assessing and recording their own QOL using the EHP-30 questionnaire.
# [2] = test system: women with uterine fibroids; assay: Example 10: safety
# Text: Secondary endpoints for safety included: Adverse events (AEs), vital signs, weight, standard 12-lead electrocardiogram (ECG), clinical laboratory tests, BMD, biochemical bone metabolism markers (serum N-telopeptide [NTELOP] and bone specific alkaline phosphatase [BAP])
# uterine fibroids = assay: Example 10 phase 3 study versus leuprorelin in uterine fibroids: efficacy; assay type: in vivo, human; conditions: between Week 6 and Week 12
# Experimental: Subjects were aged 20 years or older inclusive, with uterine fibroids. […] The number of sites for this study was approximately 40.
# The leuprorelin subjects were administered 1.88 mg leuprorelin, 3.75 mg leuprorelin, or placebo subcutaneously once every 4 weeks. The duration of treatment for both groups was 24 weeks, and the follow-up period was 4 weeks.
# Assessment included answers to the uterine fibroid symptom and quality of life questionnaire provided in FIGS. 3A-3C; answers to the work productivity and activity impairment questionnaire: general health provided in FIGS. 66A-66B; clinical laboratory tests for hematology, chemistries, urinalysis, hormone, and biochemical bone metabolism markers.
# [3] = Compound 1 40 mg, leuprolide acetate 3.75 mg/4 wk
smiles,measurement,setting,value
"CONC(=O)Nc1ccc(-c2sc3c(c2CN(C)C)c(=O)n(-c2ccc(OC)nn2)c(=O)n3Cc2c(F)cccc2F)cc1 [Compound 1, N-(4-(1-(2,6-difluorobenzyl)-5-((dimethylamino)methyl)-3-(6-methoxy-3-pyridazinyl)-2,4-dioxo-1,2,3,4-tetrahydrothieno[2,3-d]pyrimidin-6-yl)phenyl)-N′-methoxyurea]",median change in serum E2 from baseline,[1]; 10 mg,1.0 pg/mL
same,median change in serum FSH from baseline,[1]; 10 mg,−0.630 mIU/mL
same,median change in serum LH from baseline,[1]; 10 mg,0.300 mIU/mL
same,median change in serum progesterone (P) from baseline,[1]; 10 mg,0.000 ng/mL
same,subjects with CA125 less than or equal to 35 U/mL,[1]; 10 mg,75.3%
same,median change in serum E2 from baseline,[1]; 20 mg,-9.0 pg/mL
same,median change in serum FSH from baseline,[1]; 20 mg,−0.990 mIU/mL
same,median change in serum LH from baseline,[1]; 20 mg,−0.785 mIU/mL
same,median change in serum progesterone (P) from baseline,[1]; 20 mg,0.005 ng/mL
same,subjects with CA125 less than or equal to 35 U/mL,[1]; 20 mg,81.1%
same,median change in serum E2 from baseline,[1]; 40 mg,-39.0 pg/mL
same,median change in serum FSH from baseline,[1]; 40 mg,−3.550 mIU/mL
same,median change in serum LH from baseline,[1]; 40 mg,−2.480 mIU/mL
same,median change in serum progesterone (P) from baseline,[1]; 40 mg,-0.080 ng/mL
same,subjects with CA125 less than or equal to 35 U/mL,[1]; 40 mg,88.5%
same,week at which median serum E2 decreased to LLQ,[1]; [3],2 Week
same,percent change of bone mineral density from baseline,women with endometriosis; 10 mg,−0.95±1.875%
same,percent change of bone mineral density from baseline,women with endometriosis; 20 mg,−1.34±2.087%
same,percent change of bone mineral density from baseline,women with endometriosis; 40 mg,−2.08±2.220%
same,week from which median serum estradiol was below LLQ,women with endometriosis; [3],2 Week
same,"Physician B&B, dysmenorrhea",endometriosis; 10 mg,−1.0
same,"Physician B&B, dyspareunia",endometriosis; 10 mg,−0.2
same,"Physician B&B, non-menstrual pelvic pain",endometriosis; 10 mg,−0.6
same,"change from baseline in EHP-30, Control and powerlessness",endometriosis; 10 mg,−13.7
same,"change from baseline in EHP-30, Self-image",endometriosis; 10 mg,−5.5
same,"change from baseline in EHP-30, emotional well-being",endometriosis; 10 mg,−8.3
same,"change from baseline in EHP-30, pain",endometriosis; 10 mg,−18.3
same,"change from baseline in EHP-30, social support",endometriosis; 10 mg,−6.6
same,"change from baseline in mean VAS score, pelvic pain","endometriosis; 10 mg, end of 12-wk treatment period",−6.168±9.1411 mm
same,"Modified (patient) B&B, deep dyspareunia",endometriosis; 10 mg,−0.08
same,"Modified (patient) B&B, dysmenorrhea",endometriosis; 10 mg,−0.48
same,"Modified (patient) B&B, non-menstrual pelvic pain",endometriosis; 10 mg,−0.21
same,change from baseline in proportion of days with usage of analgesics,endometriosis; 10 mg,−6.6
same,"Physician B&B, dysmenorrhea",endometriosis; 20 mg,−1.5
same,"Physician B&B, dyspareunia",endometriosis; 20 mg,−0.2
same,"Physician B&B, non-menstrual pelvic pain",endometriosis; 20 mg,−0.8
same,"change from baseline in EHP-30, Control and powerlessness",endometriosis; 20 mg,−14.6
same,"change from baseline in EHP-30, Self-image",endometriosis; 20 mg,−6.3
same,"change from baseline in EHP-30, emotional well-being",endometriosis; 20 mg,−8.9
same,"change from baseline in EHP-30, pain",endometriosis; 20 mg,−17.8
same,"change from baseline in EHP-30, social support",endometriosis; 20 mg,−8.4
same,"change from baseline in mean VAS score, pelvic pain","endometriosis; 20 mg, end of 12-wk treatment period",−8.070±13.3707 mm
same,"Modified (patient) B&B, deep dyspareunia",endometriosis; 20 mg,−0.10
same,"Modified (patient) B&B, dysmenorrhea",endometriosis; 20 mg,−0.76
same,"Modified (patient) B&B, non-menstrual pelvic pain",endometriosis; 20 mg,−0.22
same,change from baseline in proportion of days with usage of analgesics,endometriosis; 20 mg,−6.3
same,"change from baseline in mean VAS score, pelvic pain","endometriosis; 40 mg, Day 1-28",−3.761 mm
same,"change from baseline in mean VAS score, pelvic pain","endometriosis; 40 mg, Day 29-56",−8.960±9.8226 mm
same,"change from baseline in mean VAS score, pelvic pain","endometriosis; 40 mg, Day 57-84",−10.464±11.0995 mm
same,"Physician B&B, dysmenorrhea",endometriosis; 40 mg,−2.0
same,"Physician B&B, dyspareunia",endometriosis; 40 mg,−0.1
same,"Physician B&B, non-menstrual pelvic pain",endometriosis; 40 mg,−0.9
same,"change from baseline in EHP-30, Control and powerlessness",endometriosis; 40 mg,−17.2
same,"change from baseline in EHP-30, Self-image",endometriosis; 40 mg,−8.4
same,"change from baseline in EHP-30, emotional well-being",endometriosis; 40 mg,−10.4
same,"change from baseline in EHP-30, pain",endometriosis; 40 mg,−25.3
same,"change from baseline in EHP-30, social support",endometriosis; 40 mg,−6.8
same,"change from baseline in mean VAS score, pelvic pain","endometriosis; 40 mg, end of 12-wk treatment period",−10.418±11.0171 mm
same,"Modified (patient) B&B, deep dyspareunia",endometriosis; 40 mg,−0.07
same,"Modified (patient) B&B, dysmenorrhea",endometriosis; 40 mg,−1.16
same,"Modified (patient) B&B, non-menstrual pelvic pain",endometriosis; 40 mg,−0.33
same,change from baseline in proportion of days with usage of analgesics,endometriosis; 40 mg,−10.1
same,AE: Arthralgia,[2]; 24 wk,8(5.8) n(%)
same,AE: Bone density decreased,[2]; 24 wk,6(4.3) n(%)
same,AE: Bone resorption test abnormal,[2]; 24 wk,7(5.1) n(%)
same,AE: Dizziness,[2]; 24 wk,9(6.5) n(%)
same,AE: Gamma-glutamyl transferase increased,[2]; 24 wk,7(5.1) n(%)
same,AE: Genital haemorrhage,[2]; 24 wk,7(5.1) n(%)
same,AE: Headache,[2]; 24 wk,21(15.2) n(%)
same,AE: Hot flush,[2]; 24 wk,59(42.8) n(%)
same,AE: Hyperhidrosis,[2]; 24 wk,13(9.4) n(%)
same,AE: Malaise,[2]; 24 wk,8(5.8) n(%)
same,AE: Menorrhagia,[2]; 24 wk,34(24.6) n(%)
same,AE: Metrorrhagia,[2]; 24 wk,68(49.3) n(%)
same,AE: Resorption bone increased,[2]; 24 wk,7(5.1) n(%)
same,AE: Somnolence,[2]; 24 wk,7(5.1) n(%)
same,AE: Viral upper respiratory tract infection,[2]; 24 wk,39(28.3) n(%)
same,AEs Leading to Study Drug Discontinuation,[2]; 24 wk,9(6.5) n(%)
same,Deaths,[2]; 24 wk,0(0.0) n(%)
same,SAEs Leading to Study Drug Discontinuation,[2]; 24 wk,0(0.0) n(%)
same,Serious Treatment-Emergent AEs,[2]; 24 wk,0(0.0) n(%)
same,"Serious Treatment-Emergent AEs, Not Related",[2]; 24 wk,0(0.0) n(%)
same,"Serious Treatment-Emergent AEs, Related",[2]; 24 wk,0(0.0) n(%)
same,Treatment-Emergent AEs,[2]; 24 wk,131(94.9) n(%)
same,"Treatment-Emergent AEs, Not Related",[2]; 24 wk,11(8.0) n(%)
same,"Treatment-Emergent AEs, Related",[2]; 24 wk,120(87.0) n(%)
same,AE leading to discontinuation: Abdominal pain,[2]; in vivo,0(0.0) n(%)
same,AE leading to discontinuation: Arthralgia,[2]; in vivo,1(0.7) n(%)
same,AE leading to discontinuation: Back pain,[2]; in vivo,0(0.0) n(%)
same,AE leading to discontinuation: Blood pressure increased,[2]; in vivo,0(0.0) n(%)
same,AE leading to discontinuation: Depression,[2]; in vivo,1(0.7) n(%)
same,AE leading to discontinuation: Drug eruption,[2]; in vivo,0(0.0) n(%)
same,AE leading to discontinuation: Fatigue,[2]; in vivo,1(0.7) n(%)
same,AE leading to discontinuation: Headache,[2]; in vivo,1(0.7) n(%)
same,AE leading to discontinuation: Hot flush,[2]; in vivo,4(2.9) n(%)
same,AE leading to discontinuation: Hypertension,[2]; in vivo,0(0.0) n(%)
same,AE leading to discontinuation: Malaise,[2]; in vivo,1(0.7) n(%)
same,AE leading to discontinuation: Nausea,[2]; in vivo,0(0.0) n(%)
same,AE leading to discontinuation: Pyrexia,[2]; in vivo,0(0.0) n(%)
same,AE leading to discontinuation: Tenosynovitis,[2]; in vivo,1(0.7) n(%)
same,AE leading to discontinuation: Tenosynovitis stenosans,[2]; in vivo,1(0.7) n(%)
same,ALP > 3 × ULN,[2]; in vivo,0 (0.0) n (%)
same,ALT > 3 × ULN,[2]; in vivo,3 (2.2) n (%)
same,ALT > 5 × ULN,[2]; in vivo,1 (0.7) n (%)
same,ALT and AST > 3 × ULN,[2]; in vivo,2 (1.4) n (%)
same,ALT or AST > 3 × ULN with Tbili > 2 × ULN,[2]; in vivo,0 (0.0) n (%)
same,AST > 3 × ULN,[2]; in vivo,2 (1.4) n (%)
same,AST > 5 × ULN,[2]; in vivo,0 (0.0) n (%)
same,Any Markedly Abnormal LFT,[2]; in vivo,3 (2.2) n (%)
same,proportion of subjects with a PBAC <10,uterine fibroids,82.2%
